Test results taken from patent publication US20140315738A1, “MARINE MEDAKA GENES RESPONDING TO THE EXPOSURE OF ENDOCRINE-DISRUPTING CHEMICALS, AND METHOD FOR DIAGNOSING AN AQUATIC ECO-SYSTEM CONTAMINATION USING SAME” (priority 2011, published 2014).

Tested on: Javanese medaka (Oryzias javanicus) livers
Assay: real-time quantitative PCR of liver gene expression after exposure to 17β-estradiol
Assay type: in vivo
Details: duration of exposure 24 hr, 100 μg/L, β-actin control gene
Protocol: To 3 L beaker with 2 L filtered seawater therein, 10 male Javanese medaka bred in culture water tank were transported each time, and acclimated for 24 hr. […] Additionally, five Javanese medaka of Example <1-1> were exposed to BPA (76 μg/L) for 48 hr. […] The Javanese medaka was transported to ice water, one at a time, which momentarily stunned it, followed by beheading and evisceration and liver removal.
Primers for real-time quantitative PCR (RT-PCR) for the above genes were designed and synthesized (Table 3).
With RNA template extracted with the method of Example <2-1>, cDNA was synthesized using AB High Capacity RNA-to-cDNA Kit (Applied Biosystems, USA). RNA in the amount of 1 μg was seeded, added with distilled water and titrated to 9 μl. 2×RT buffer (10 μl), and 20× enzyme Mix 1 μl were mixed well, centrifuged and precipitated, and allowed to react at 37° C. for 60 min. The reactant was heated at 95° C. for 5 min, after which reaction was completed. The synthesized cDNA was stored at −20° C.
To the 0.5 μg synthesized cDNA (corresponding to approximately 10 ng/μl), 0.8 primer pairs of corresponding genes (10 pmol/μl), and 2 SYBR1 mixture (10 μl) were added. The final amount was titrated to 20 μl using distilled water. At temperature condition of 95° C. 10 min, 95° C. 30 sec, 60° C. 30 sec, 72° C. 30 sec, 40 cycles of PCR were conducted.

Structure (SMILES): C[C@]12CC[C@@H]3c4ccc(O)cc4CC[C@H]3[C@@H]1CC[C@@H]2O [17β-estradiol]
- Difference of expression level, Apolipoprotein B (SEQ ID 53): 2.5 times lower
- Difference of expression level, Cytochrome P450 1A (CYP1A) (SEQ ID 5): 2.7 times lower
- Difference of expression level, Glucose-6-phosphate dehydrogenase (SEQ ID 55): 2.2 times lower
- Difference of expression level, Glutamate dehydrogenase 1b (SEQ ID 54): 5.2 times lower
- Difference of expression level, Selenoprotein M (SEQ ID 8): 7.7 times higher
- Difference of expression level, Transferrin (SEQ ID 56): 3.6 times lower
- Difference of expression level, Vitellogenin 1 (SEQ ID 37): 59.1 times higher
